In the NIST ThermoML archive (doi:10.1016/j.jct.2016.12.023):

Assay: mn = molality of the nth substance listed, in mol/kg
Conditions: 298.15 K, 101.33 kPa, Liquid, Vibrating tube method

OC[C@H]1O[C@@H]2O[C@H]3[C@H](O)[C@@H](O)[C@@H](O[C@H]4[C@H](O)[C@@H](O)[C@@H](O[C@H]5[C@H](O)[C@@H](O)[C@@H](O[C@H]6[C@H](O)[C@@H](O)[C@@H](O[C@H]7[C@H](O)[C@@H](O)[C@@H](O[C@H]1[C@H](O)[C@H]2O)O[C@@H]7CO)O[C@@H]6CO)O[C@@H]5CO)O[C@@H]4CO)O[C@@H]3CO [α-cyclodextrin] + O
Conditions | mass density [kg/m3]
m1 = 0.00975 | 1000.6
m1 = 0.01763 | 1003.4
m1 = 0.02931 | 1007.6
m1 = 0.03389 | 1009.2
m1 = 0.04348 | 1012.5
m1 = 0.05233 | 1015.6
m1 = 0.06207 | 1018.9
m1 = 0.07117 | 1022
m1 = 0.0783 | 1024.4
m1 = 0.09004 | 1028.3
m1 = 0.09733 | 1031
m1 = 0.09764 | 1030.7
m1 = 0.09915 | 1031.6
m1 = 0.09944 | 1031.7
m1 = 0.1001 | 1031.6
